How the values were obtained:
serine protease = test: Serine protease activity of intestinal fluid during intestinal perfusion and splanchnic ischemia; assay type: in vivo, rat; details: intestinal perfusion 0.2 mg/ml
Procedure: (§1) The small intestine of rats was perfused at a constant flow rate (4.0 ml/min) with 45 ml of rat intestinal fluid supplemented with 5 ml of 5% glucose (IF) or 50 ml of saline with 0.1% glucose (SAL) or with ANDG at a final concentration of 0.2 mg/ml. The perfusate was recirculated continuously throughout the entire procedure. After 15 min of intestinal perfusion, the animals were subjected to […]. of splanchnic ischemia, which was confirmed by cyanotic organ discoloration and loss of the pressure pulsation in the mesentery.
The process of shock was monitored by a number of methods in various tissues throughout the body. Intestinal fluid was analyzed for serine protease activity. One milliliter of circulating fluid in the intestine was collected from the reservoir before ischemia and 90 min after ischemia. […] After 90 min of ischemia, the serine protease activity levels in the IF, SAL, and ANGD groups were 5.6±2.3×10^3 units/ml, 3.3±2.3×10^3 units/ml, and 1.2±0.2×10^3 units/ml, respectively. Intestinal perfusion with ANGD kept the serine protease activity lower than in the other two groups (p<0.05, SAL vs. ANGD; p<0.01 ANGD vs. IF and SAL groups).

Human neutrophils (PMNs) = test: Neutrophil activation (pseudopod formation) by pancreatic homogenate prepared with protease inhibitors; assay type: cell-based; details: for ability of the homogenate to stimulate neutrophil activation: pancreas homogenized in the presence of protease inhibitor
Procedure: The organs were immediately washed in cold 0.25 M sucrose solution, homogenized in Krebs-Henseleit solution (1:3 w/v), and the homogenate was diluted (1:2 v/v Krebs-Henseleit), following the protocol established by Glen and Lefer (Circ. Res., 1971). This homogenate served as the stock solution for all experiments. Aliquots were heated for 2.5 hours at 38° C. with mild stirring and the supernatant collected after centrifugation at 500 g for 10 min. Incubation of tissue homogenates at 38° C. promotes enzymatic activity and enhances production of the cellular activation factors.
Neutrophils were isolated from venous blood collected from healthy human volunteers in heparinized vacutainer tubes and stored at 4° C. Human neutrophils (PMNs) were used in these studies after it was shown in pilot studies that the rat organ extracts stimulated activation of both human and rat neutrophils to a similar degree.
Neutrophil isolation was carried out using gravity sedimentation to remove erythrocytes and centrifugation through a Percoll gradient. Isolated neutrophils were resuspended in PBS to achieve a count of 10^6 neutrophils/ml. 100 μl aliquots of suspended neutrophils were added to 100 μl of activating agent (e.g. tissue homogenate) or PBS as a control, and incubated for 10 minutes at 27° C. After incubation, 100 μl of 3% glutaraldehyde (Fisher Scientific, Fair Lawn, N.J.) was added to fix the cells. 100 μl of crystal violet in phosphate (pH: 7.4) buffer was added to label leukocyte nuclei for identification on wet mount preparations. Freely suspended neutrophils with pseudopodia were identified by their segmented nuclei and by the presence of cytoplasmic granules. One hundred neutrophils were counted per slide. Cells having pseudopod projections greater than about 1 μm were considered positive.
To determine if pancreatic homogenates could induce a “systemic response” in vitro, non-pancreatic tissues were incubated with substimulatory quantities of pancreatic homogenate (100 μl pancreatic homogenate/3 ml organ homogenate). […] As the pancreas produces a number of digestive enzymes, including proteases, a cocktail of trypsin and chymotrypsin was added to non-pancreatic tissue and the neutrophil activation assays were performed.

rats [1] = test: Splanchnic ischemia/reperfusion shock with perfusion of the lumen of the small intestine; assay type: in vivo, rat
Procedure: as §1
Arterial and portal venous blood (0.3 ml each) were sampled before ischemia, after 90 min of ischemia, and 30, 60, and 120 min postreperfusion. The samples were analyzed for leukocyte count and activation based on crystal violet staining. In the preischemic period, the leukocyte counts were the same in all three groups. In the IF And SAL groups, the leukocyte count in arterial blood started to decrease after ischemia and reached its lowest value 120 min after reperfusion. […] Similarly, ANGD was able to inhibit the activation of circulating neutrophils (15.0±1.6%) as compared to both IF (23.3±1.0%, p<0.05) and SAL (25.0±1.6%, p<0.05) at 120 minutes post-perfusion.
Myeloperoxidase activity was used as a marker for assessment of leukocyte infiltration into the small intestine, liver, and lung. Tissue myeloperoxidase levels were determined by a spectrophotometric method. At 120 minutes of reperfusion, myeloperoxidase levels were increased in intestine (36.1±3.9 U/g to 309.3±51.0 U/g), liver (0.4±0.1 U/g to 2.6±0.3 U/g), and lung (29.0±4.4 U/g to 199.2±33.9 U/g). This is an early indicator of leukocyte infiltration and organ failure in shock.
Thickness of the intestinal mucosa was used as an indicator of damage to the intestine. A sample of small intestine was longitudinally dissected, fixed in 10% buffered formalin, and embedded in paraffin. Five-micrometer sections were made and stained with hematoxylin and eosin and examined at 200× magnification. Severity of intestinal injury was estimated by the length between the tip of the villi and the musculus mucosae, a measure of mucosal layer thickness. In each specimen, the measurement was made at 10 randomly selected locations and averaged. Intestinal perfusion of protease inhibitor served to maintain mucosal thickness and to reduce intestinal injury (IF 252.0±34.0 […]).
The level of edematous lung injury was assayed by a pulmonary wet/dry ratio. Lung lobes were harvested, wet weight was determined and samples were dried at 70° C. for 72 hours. The dried tissue was weighed, and the ratio of wet to dried weight was calculated. Edema was much greater in the IF (5.65±0.33) and SAL (4.88±0.39) groups as compared to the ANGD (3.66±0.27) group which was similar to non-shock controls.

rats [2] = test: Shock induced by bolus injection of pancreatic homogenate, with or without ANGD infusion; assay type: in vivo, rat; details: one hour i.v. pretreatment 3.3 mg/kg body wt per hour, then pancreatic homogenate bolus
Procedure: Rats were cannulated via the femoral arteries and veins under general anesthesia (pentobarbital, 50 mg/kg i.m.) and saline, without or with ANGD, was infused to examine the response of the circulation after administration of pancreatic homogenate. The arterial catheter served to record mean arterial pressure (MAP) and heart rate. […] No heparin was injected other than that needed to maintain open catheters (10 U/ml Plasma-Lyte, Travenol Laboratory Inc., Deerfield, Ill.). After a one hour pretreatment, a bolus injection of filtered (0.78 μm vacuum filter, Millipore) stock pancreatic homogenate was administered (2 ml). The extent to which pancreatic homogenate induced hypotension and circulatory shock, both in the presence and absence of ANGD, was examined.

Row | SMILES | serine protease activity level in the intestine (serine protease; after 90 min of ischemia, IF 5.6±2.3×10^3, SAL 3.3±2.3×10^3) | serine protease activity level in the intestine (serine protease; before ischemia, IF=5.8±1.8×10^3, SAL=2.0±0.9×10^3) | neutrophil activation (Human neutrophils (PMNs); pancreas homogenized in presence of inhibitor, untreated extract 59±10%) | ability of the homogenate to stimulate neutrophil activation (Human neutrophils (PMNs)) | myeloperoxidase activity in liver (rats [1]; 120 minutes of reperfusion, without inhibitor 2.6±0.3 U/g) | myeloperoxidase activity in lung (rats [1]; 120 minutes of reperfusion, without inhibitor 199.2±33.9 U/g) | myeloperoxidase activity in intestine (rats [1]; 120 minutes of reperfusion, without inhibitor 309.3±51.0 U/g) | activation of circulating neutrophils (rats [1]; 120 minutes post-perfusion, IF 23.3±1.0%, SAL 25.0±1.6%) | pulmonary wet/dry ratio (edematous lung injury) (rats [1]; IF 5.65±0.33, SAL 4.88±0.39) | leukopenia (leukocyte count in arterial blood) (rats [1]; intestinal perfusion 0.2 mg/ml, after ischemia up to 120 min after reperfusion) | mucosal thickness (tip of the villi to musculus mucosae) (rats [1]; small intestine, IF 252.0±34.0) | death within the 60 minute post-injection observation period (rats [2]) | time for MAP and heart rate to return to normal levels (rats [2])
1 | N=C(N)c1ccc2cc(OC(=O)c3ccc(N=C(N)N)cc3)ccc2c1 [ANGD, 6-amidino-2napthyl p-guanidobenzoate dimethane-sulfate] | 1.2±0.2×10^3 units/ml | 1.2±0.1×10^3 units/ml | 9±12% | significantly decreased | 1.0±0.1 U/g | 87.0±13.4 U/g | 62.5±19.8 U/g | 15.0±1.6% | 3.66±0.27 | completely ameliorated leukopenia | 378 ± 38 µm | none of these animals died | ≤ 20 min
2 | CCOC(=O)c1ccc(OC(=O)CCCCCN=C(N)N)cc1.CS(=O)(=O)O [FOY, gabaxalate mesilate] |  |  |  | significantly decreased |  |  |  |  |  |  |  |  | 
3 | O=S(=O)(F)Cc1ccccc1 [PMSF, phenylmethylsulfonylfluoride] |  |  |  | significantly decreased |  |  |  |  |  |  |  |  | 
